According to patent EP0183129A1, “Quinolonecarboxylic acid derivatives” (KYORIN PHARMACEUTICAL CO., LTD., priority 1984, dated 1986):
Counter-ions that a name gives are not always drawn. Like-named read-outs stand apart in the source and are kept apart here.

Tests used:
[1] = system: Bacillus subtilis PCI 219; experiment: In vitro antibacterial activity, MIC (standard strain); type: cell-based; details: PCI219
S. aureus Smith = experiment: as above; type: cell-based, Staphylococcus aureus
S. epidermidis IID 866 = experiment: as above; type: cell-based; details: Staphylococcus epidermidis, IID866, S. epidermidis IID 866; 10^6 cells/ml; standard strain; read-out: MIC
S. faecalis IID 682 = experiment: as above; type: cell-based; details: Enterococcus faecalis, IID682; S. faecalis IID 682; 10^6 cells/ml; standard strain; read-out: MIC
E. coli ATCC 10536 = experiment: as above; type: cell-based; details: Escherichia coli, ATCC10536; E. coli ATCC 10536; 10^6 cells/ml; standard strain; read-out: MIC
E. coli ML 4707 = experiment: as above; type: cell-based; details: Escherichia coli, ML4707; E. coli ML 4707; 10^6 cells/ml; standard strain; read-out: MIC
[2] = system: Citrobacter freundii IID 976; experiment: as above; type: cell-based; details: IID976; Citrobacter freundii IID 976; 10^6 cells/ml; standard strain; read-out: MIC
K. pneumoniae 1-220S = experiment: as above; type: cell-based; details: Klebsiella pneumoniae, 1220S; K. pneumoniae 1-220S; 10^6 cells/ml; standard strain; read-out: MIC
[3] = system: Salmonella entritidis IID 604; experiment: as above; type: cell-based; details: IID604; Salmonella entritidis IID 604; 10^6 cells/ml; standard strain; read-out: MIC
Shigella sonnei IID 969 = experiment: as above; type: cell-based; details: IID969, 10^6 cells/ml
Description: Experiment-1 In vitro antibacterial activity
The in vitro antibacterial activity against gram-positive and gram-negative bacteria has been investivated.
The minimum inhibitory concentration (MIC) was determined in accordance with the method recommended by Japan Society of Chemotherapy.

[4] = system: Yersinia enterocolitica IID 981; experiment: as above; type: cell-based; details: IID981; Yersinia enterocolitica IID 981; 10^6 cells/ml; standard strain; read-out: MIC
S. marcescens GN 7577 = experiment: as above; type: cell-based; details: Serratia marcescens, GN7577; S. marcescens GN 7577; 10^6 cells/ml; standard strain; read-out: MIC
[5] = system: Pseudomonas aeruginosa V-1; experiment: as above; type: cell-based; details: V1; Pseudomonas aeruginosa V-1; 10^6 cells/ml; standard strain; read-out: MIC
P. aeruginosa IID 1210 = experiment: as above; type: cell-based; details: Pseudomonas aeruginosa, IID1210; P. aeruginosa IID 1210; 10^6 cells/ml; standard strain; read-out: MIC
[6] = system: Acinetobacter anitratus IID 876; experiment: as above; type: cell-based; details: Acinetobacter calcoaceticus, IID876, Acinetobacter anitratus IID 876; 10^6 cells/ml; standard strain; read-out: MIC
[7] = system: Alcaligenes faecalis 0104002; experiment: as above; type: cell-based; details: Alcaligenes faecalis, 0104002, Alcaligenes faecalis 0104002; 10^6 cells/ml; standard strain; read-out: MIC
[8] = system: Bacteroides fragilis GM 7000; experiment: as above; type: cell-based; details: GM7000; Bacteroides fragilis GM 7000; 10^6 cells/ml; standard strain; read-out: MIC
B. fragilis 0558 = experiment: as above; type: cell-based, Bacteroides fragilis; details: Bacteroides fragilis, 0558, B. fragilis 0558; 10^6 cells/ml; standard strain; read-out: MIC
[9] = system: Fusobacterium varium KYA 8501; experiment: as above; type: cell-based; details: Fusobacterium varium, KYA8501, Fusobacterium varium KYA 8501; 10^6 cells/ml; standard strain; read-out: MIC
C. ramosum = experiment: as above; type: cell-based; details: Thomasclavelia ramosa; C. ramosum; 10^6 cells/ml; standard strain; read-out: MIC
S. pneumoniae 15 = experiment: In vitro antibacterial activity, MIC (clinical isolates); type: cell-based; details: Streptococcus pneumoniae; S. pneumoniae 15; 10^6 cells/ml; clinical isolate; read-out: MIC
S. pneumoniae 2054 = experiment: as above; type: cell-based; details: Streptococcus pneumoniae; S. pneumoniae 2054; 10^6 cells/ml; clinical isolate; read-out: MIC
S. pyogenes 3130 = experiment: as above; type: cell-based; details: Streptococcus pyogenes, read-out: MIC
S. pyogenes 3102 = experiment: as above; type: cell-based; details: Streptococcus pyogenes; S. pyogenes 3102; 10^6 cells/ml; clinical isolate; read-out: MIC
S. pyogenes 3107 = experiment: as above; type: cell-based; details: Streptococcus pyogenes; S. pyogenes 3107; 10^6 cells/ml; clinical isolate; read-out: MIC
S. pyogenes 4340 = experiment: as above; type: cell-based; details: Streptococcus pyogenes; S. pyogenes 4340; 10^6 cells/ml; clinical isolate; read-out: MIC
S. agalactiae 4049 = experiment: as above; type: cell-based; details: Streptococcus agalactiae; S. agalactiae 4049; 10^6 cells/ml; clinical isolate; read-out: MIC
S. agalactiae 4342 = experiment: as above; type: cell-based; details: Streptococcus agalactiae; S. agalactiae 4342; 10^6 cells/ml; clinical isolate; read-out: MIC
S. agalactiae 4470 = experiment: as above; type: cell-based; details: Streptococcus agalactiae; S. agalactiae 4470; 10^6 cells/ml; clinical isolate; read-out: MIC
S. faecalis 49 = experiment: as above; type: cell-based; details: Enterococcus faecalis; S. faecalis 49; 10^6 cells/ml; clinical isolate; read-out: MIC
[10] = Bacillus subtilis PCI 219, 10^6 cells/ml, standard strain, read-out: MIC
[11] = MIC column of Table 3-1, beside ED50 against S. aureus Smith
[12] = Staphylococcus aureus, S. aureus Smith, 10^6 cells/ml, standard strain, read-out: MIC

Structure (SMILES) | MIC (S. aureus Smith; [12]) [µg/mL] | MIC (S. epidermidis IID 866) [µg/mL] | MIC (S. faecalis IID 682) [µg/mL] | MIC (E. coli ATCC 10536) [µg/mL] | MIC (E. coli ML 4707) [µg/mL] | MIC [2] [µg/mL] | MIC (K. pneumoniae 1-220S) [µg/mL] | MIC [3] [µg/mL] | MIC (Shigella sonnei IID 969) [µg/mL] | MIC [4] [µg/mL] | MIC (S. marcescens GN 7577) [µg/mL] | MIC [5] [µg/mL] | MIC (P. aeruginosa IID 1210) [µg/mL] | MIC [6] [µg/mL] | MIC [7] [µg/mL] | MIC [8] [µg/mL] | MIC (B. fragilis 0558) [µg/mL] | MIC [9] [µg/mL] | MIC (C. ramosum) [µg/mL] | MIC (S. pneumoniae 15) [µg/mL] | other results
NCC1CCN(c2c(F)cc3c(=O)c(C(=O)O)cn(C4CC4)c3c2F)C1 (stereo not drawn) [Example 1, 7-(3-Aminomethyl-l-pyrrolidinyl)-l-cyclopropyl-6,8-difluoro-1,4-dihydro-4-oxo-3-quinolinecarboxylic acid hydrochloride] | 0.05 | 0.05 | 0.05 | 0.025 | 0.025 | 0.05 | 0.05 | 0.05 | 0.025 | 0.05 | 0.78 | 0.39 | 0.78 | 0.1 | 0.39 | 0.78 | 0.39 | 0.78 | 0.78 | 0.05 | MIC [1, 10]: 0.025 µg/mL; MIC (S. aureus Smith; [11]): 0.05 µg/mL; MIC (S. pneumoniae 2054): 0.05 µg/mL; MIC (S. pyogenes 3130): 0.05 µg/mL; MIC (S. pyogenes 3102): 0.05 µg/mL; MIC (S. pyogenes 3107): 0.05 µg/mL; MIC (S. pyogenes 4340): 0.05 µg/mL; MIC (S. agalactiae 4049): 0.05 µg/mL; MIC (S. agalactiae 4342): 0.05 µg/mL; MIC (S. agalactiae 4470): 0.05 µg/mL; MIC (S. faecalis 49): 0.1 µg/mL
CCNCC1CCN(c2c(F)cc3c(=O)c(C(=O)O)cn(C4CC4)c3c2F)C1 (stereo not drawn) [Example 2, l-Cyclopropyl-7-(3-ethylaminomethyl-l-pyrrolidinyl)-6,8-difluoro-l,4-dihydro-4-oxo-3-quinolinecarboxylic acid hydrochloride] | 0.025 | 0.05 | 0.2 | 0.025 | 0.025 | 0.05 | 0.1 | 0.05 | 0.025 | 0.1 | 1.56 | 0.78 | 3.13 | 0.05 | 0.1 | 1.56 | 0.78 | 1.56 | 0.78 | 0.05 | MIC [1, 10]: 0.0125 µg/mL; MIC (S. aureus Smith; [11]): 0.025 µg/mL; MIC (S. pneumoniae 2054): 0.1 µg/mL; MIC (S. pyogenes 3130): 0.05 µg/mL; MIC (S. pyogenes 3102): 0.05 µg/mL; MIC (S. pyogenes 3107): 0.05 µg/mL; MIC (S. pyogenes 4340): 0.1 µg/mL; MIC (S. agalactiae 4049): 0.1 µg/mL; MIC (S. agalactiae 4342): 0.1 µg/mL; MIC (S. agalactiae 4470): 0.1 µg/mL; MIC (S. faecalis 49): 0.2 µg/mL
CCNCC1CCN(c2cc3c(cc2F)c(=O)c(C(=O)O)cn3C2CC2)C1.Cl (stereo not shown) [Example 7, 1-Cyclopropyl-7-(3-ethylaminomethyl-1-pyrrolidinyl)-6-fluoro-1,4-dihydro-4-oxo-3-quinolinecarboxylic acid hydrochloride] | 0.1 | 0.05 | 0.39 | 0.05 | 0.05 | 0.1 | 0.2 | 0.2 | 0.05 | 0.39 | 6.25 | 1.56 | 3.13 | 0.78 | 1.56 | 25 | 25 | 12.5 | 6.25 | 0.39 | MIC [1, 10]: 0.025 µg/mL; MIC (S. pneumoniae 2054): 0.39 µg/mL; MIC (S. pyogenes 3130): 0.2 µg/mL; MIC (S. pyogenes 3102): 0.2 µg/mL; MIC (S. pyogenes 3107): 0.2 µg/mL; MIC (S. pyogenes 4340): 0.2 µg/mL; MIC (S. agalactiae 4049): 0.78 µg/mL; MIC (S. agalactiae 4342): 0.39 µg/mL; MIC (S. agalactiae 4470): 0.39 µg/mL; MIC (S. faecalis 49): 0.78 µg/mL
CNCC1CCN(c2c(F)cc3c(=O)c(C(=O)O)cn(C4CC4)c3c2F)C1 (stereo not drawn) [Example 8, 1-Cyclopropyl-6,8-difluoro-1,4-dihydro-7-(3-methylaminomethyl-l-pyrrolidinyl)-4-oxo-3-quinolinecarboxylic acid hydrochloride] | 0.025 | 0.025 | 0.1 | 0.025 | 0.025 | 0.025 | 0.1 | 0.05 | 0.0125 | 0.1 | 1.56 | 0.78 | 1.56 | 0.1 | 0.39 | 0.78 | 0.39 | 0.78 | 0.78 | 0.05 | MIC ([1]; Bacillus subtilis): 0.0125 µg/mL; MIC (S. pneumoniae 2054): 0.05 µg/mL; MIC (S. pyogenes 3130): 0.05 µg/mL; MIC (S. pyogenes 3102): 0.05 µg/mL; MIC (S. pyogenes 3107): 0.05 µg/mL; MIC (S. pyogenes 4340): 0.05 µg/mL; MIC (S. agalactiae 4049): 0.2 µg/mL; MIC (S. agalactiae 4342): 0.2 µg/mL; MIC (S. faecalis 49): 0.1 µg/mL
